Reference: patent US6890959B2, “Aminomethyl-phenyl-cyclohexanone derivatives” (Gruenenthal GmbH, priority 2000, dated 2005)
Structures can show the parent of a compound that is named as a salt.

Tested on: Male NMRI mice
Assay: phenylquinone-induced writhing test in mice
Type: in vivo
Details: 10 mg/kg i.v.; phenylquinone i.p. 10 minutes after compound; writhing counted 5-20 minutes after phenylquinone
Protocol: The antinociceptive activity of the compounds according to the invention was investigated in mice in a phenylquinone-induced writhing test, as modified by I. C. Hendershot, J. Forsaith, J. Pharmacol. Exp. Ther. 125, 237-240 (1959). Male NMRI mice weighing 25-30 g were used. Groups of 10 animals per substance dose received 0.3 ml/mouse of a 0.02% aqueous solution of phenylquinone (phenylbenzoquinone, Sigma, Deisenhofen; preparation of the solution with the addition of 5% ethanol and storage in a water bath at 45° C.) administered intraperitoneally 10 minutes after intravenous administration of a compound according to the invention. The animals were placed individually in observation cages. The number of pain-induced stretching movements (so-called writhing reactions, i.e. straightening of the body with stretching of the hind extremities) was counted by means of a push-button counter for 5-20 minutes after the administration of phenylquinone. Animals which received physiological saline solution i.v. and […]. were also used as a control.
All substances were tested in a standard dose of 10 mg/kg. The percentage inhibition (% inhibition) of the writhing reactions by a substance was calculated according to the following equation: % inhibition=100−[WR treated animals/WR control×100]

Compound	% inhibition of the writhing reactions [%]
COc1cccc(C2CC(=O)CCC2CN(C)C)c1 (racemic) [Compound 2, rac-cis-[4-Dimethylaminomethyl-3-(3-methoxy-phenyl)-cyclohexanone]hydrochloride]	96
rac-cis-[4-Dimethylaminomethyl-3-(3-hydroxy-phenyl)-cyclohexanone [Compound 4]	100
rac-trans-[4-dimethylaminomethyl-3-(3-methoxy-phenyl)-cyclohexanone]hydrochloride [Compound 3]	92
